Assay results: patent US20160051704A1, “MOLECULAR IMAGING PROBES FOR LUNG CANCER INTRAOPERATIVE GUIDANCE” (H. Lee Moffitt Cancer Center and Research Institute, Inc., priority 2013, published 2016)

How the values were obtained:
[1] = literature statement; cited from earlier work
[2] = molecular target: δ-opioid receptor; settings: literature value; cited from earlier work
[3] = molecular target: T1, delta opioid receptor (δOR) (Homo sapiens, UniProt P41143); experiment: Lanthanide time-resolved fluorescence (TRF) competitive binding assay on HCT-116/δOR whole cells against Eu-DTPA-DPLCE; settings: HCT-116 cells engineered to express δOR; competed ligand Eu-labeled DPLCE; read-out: Ki (δOR binding affinity)
T1 construct: pcDNA-δOR15 vector containing a truncated δOR lacking the final 15 C-terminal amino acids; expressed in transfected cells
T1 sequence (P41143 1-357 limits assumed): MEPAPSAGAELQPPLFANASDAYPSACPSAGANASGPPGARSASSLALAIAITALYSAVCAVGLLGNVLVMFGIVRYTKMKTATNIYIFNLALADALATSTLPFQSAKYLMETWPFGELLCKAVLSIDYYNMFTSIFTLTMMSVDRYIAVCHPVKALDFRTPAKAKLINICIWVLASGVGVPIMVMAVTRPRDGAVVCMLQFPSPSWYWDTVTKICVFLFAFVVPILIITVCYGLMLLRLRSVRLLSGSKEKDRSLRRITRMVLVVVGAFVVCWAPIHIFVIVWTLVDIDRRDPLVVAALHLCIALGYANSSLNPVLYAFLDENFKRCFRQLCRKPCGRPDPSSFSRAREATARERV
From the text: The inventors have previously generated an engineered cell line that stably overexpresses the δO R based on the colorectal cancer cell line HCT-116. […] For the LTRF competition binding assays with Dmt-Tic-IR800, the inventors used the engineered HCT-116/δOR cell line since it has a high number of receptors on the cell surface.
To determine binding affinity the inventors used a lanthanide time-resolved fluorescence (LTRF) competitive binding assay as described previously.
For the competitive binding assays, HCT-116/δOR cells were plated in black wall/white bottom 96-well plates (Perkin Elmer, Cat. #6005060) at a density of 20,000 cells per well and were allowed to grow for 3 days.
On the day of the experiment, media were aspirated from all wells and then the cells were rinsed with phosphate buffered saline (PBS) (100 μL/well). […] Ligands were diluted in binding assay buffer (Modified Eagles medium [MEM] (Gibco, Cat. #61100-087), 1 mM 1,10-phenanthroline, 200 mg/L bacitracin, 0.5 mg/L leupeptin, 26 mM NaHCO3, 25 mM HEPES, 0.2% w/v BSA) and samples were tested in octuplicate.
Cells were incubated in the presence of ligands for 1 h at 37° C. and 5% CO2. Following the incubation, cells were washed three times with wash buffer (50 mM Tris-HCl, 0.2% w/v BSA, 30 mM NaCl) (200 μL/well).

[4] = molecular target: T2, δOR (Mus musculus, UniProt P32300); experiment: Mouse-isolated vas deferens (MVD) assay against δ-agonist DPDPE; settings: n=8, read-out: Ke (inhibitory potency)
T2 construct: from tissue; host or cells: mouse isolated vas deferens
T2 sequence (P32300 whole entry): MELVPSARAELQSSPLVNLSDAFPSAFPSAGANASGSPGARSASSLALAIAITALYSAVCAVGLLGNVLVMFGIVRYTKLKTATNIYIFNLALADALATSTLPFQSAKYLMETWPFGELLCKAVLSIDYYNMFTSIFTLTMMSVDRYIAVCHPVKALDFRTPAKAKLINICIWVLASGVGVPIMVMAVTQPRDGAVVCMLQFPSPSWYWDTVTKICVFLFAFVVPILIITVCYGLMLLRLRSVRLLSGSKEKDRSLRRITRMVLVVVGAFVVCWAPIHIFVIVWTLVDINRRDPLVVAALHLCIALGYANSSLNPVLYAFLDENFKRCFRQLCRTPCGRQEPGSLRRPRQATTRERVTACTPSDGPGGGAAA
From the text: (Kramer, T. H.; Davis, P.; Hruby, V. J.; Burks, T. F.; Porreca, F. J. Pharmacol. Exp. Ther. 1993, 266, 577-584)

[5] = tested on: HCT-116/δOR (δOR+) tumor relative to HCT-116 (δOR−) tumor; assay type: in vivo, mice
Method: (§1) The inventors evaluated a synthetic peptide δ-opioid receptor (δOR) antagonist Dmt-Tic (FIG. 8) conjugated to two different fluorescent dyes, Cy5 and IR800CW, as further discussed below. The pharmacokinetics (PK) of Dmt-Tic-Cy5 was evaluated in a subcutaneous xenograft model using HCT-116 cells (δOR−) and HCT-116 cells that were engineered to overexpress the δOR (δOR+). Tumor uptake of Dmt-Tic-Cy5 was also studied by intravital fluorescence microscopy using a dorsal skin-fold window chamber tumor xenograft model.
For PK experiments, mice were injected with 4.5 nmol/kg Dmt-Tic-Cy5 i.v. and images acquired at various time points from 0-168 h ([…]). Graphs 9B and 9C depict the mean fluorescent signal obtained from the δOR− tumors and δOR+ tumors over a time course of 0-168 h. Graph […] depicts the mean fold of enhancement (δOR+ tumor signal/δOR− tumor signal) over time. The tumor signals were quantified, averaged (n≧3 for each time point), and plotted over time. The graphs 9B and 9C show maximum probe uptake in the δOR+ tumor at 3 h. FIG. 9D depicts the maximum signal fold of enhancement (27±9 s.d.) at 18 h in δOR+ relative to δOR− tumors.
Mice then were tail vein injected with 10 μg of ligand 1 and images were acquired at different times post-injection using a VersArray 1300B cooled CCD camera, a filtered fiberoptic light source and a tunable emission filter (CRI, Inc.). After 15 min post-injection, the fluorescence intensity maps indicated systemic presence of the compound with high intensity throughout the animal (not shown). […] Histograms were generated for each ROI, and mean fluorescence intensities were determined for each time point. […]
Initial experiments were performed using the HCT-116 parental cell line and HCT-116/δOR engineered cells in a bilateral flank subcutaneous xenograft model in mice. […] Mice were injected intravenously with the designated concentrations of Dmt-Tic-IR800 and fluorescence imaging was performed at various time points post-injection using the IVIS200 imaging system. […]

[6] = tested on: HCT-116/RFP (δOR negative) and HCT-116/δOR tumors; experiment: Intravital fluorescence microscopy, dorsal skin-fold window chamber tumor xenograft; assay type: in vivo, mice; settings: 45 nmol/kg i.v.; HCT-116/RFP (δOR negative) tumor; post tail vein injection
Method: as §1
Mice containing dorsal skin-fold window chamber tumor xenografts were injected with 45 nmol/kg Dmt-Tic-Cy5 i.v. (FIG. 12) Images were acquired continuously for 15 minutes post-injection and at various time points after. […] Dmt-Tic-Cy5 is taken up and extravasates from the rat GFP vessels within seconds post tail vein injection (top). Dmt-Tic-Cy5 is cleared by 33 minutes post tail vein injection (bottom). Light gray represents the RFP signal from the tumor cells, medium gray represents the GFP signal from the rat microvessels, and dark gray is the Cy5 signal from the ligand. […] Shown are the Cy5 signal from the ligand in dark gray (left images) and overlays of the Cy5 signal and white light channels (right images) pre-injection and 25 minutes, 45 minutes, 60 minutes, 1 hour 25 minutes, and 24 hours post-injection.

[7] = In vivo pharmacokinetic (PK) and biodistribution (BD) profiles of fluorescent conjugates
[8] = tested on: DMS-53 (δOR+) tumor relative to H1299 (δOR−) tumor; experiment: In vivo fluorescence imaging, bilateral subcutaneous lung cancer xenografts with endogenous δOR expression; parameters: species or system mice; settings: for tumor selectivity in fluorescence image: 40 nmol/kg, 24 h post-administration
Method: Mice were subcutaneously injected with H1299 (δOR−) (12 million cells of 100 uL per injection) and DMS-53 (δOR+) (20 million cells at 100 uL per injection) cells in the left and right flanks, respectively. Tumors were grown for 3 weeks after subcutaneous injection.
A dose determination assay was performed to find the optimal concentration of Dmt-Tic-IR800 for further experiments. A higher concentration of the imaging agent in these experiments was needed due to the lower receptor number. Based on previous work with fluorescent imaging agents targeting different receptors in endogenous expressing cell lines, the inventors selected concentrations of 40 nmol/kg, 80 nmol/kg, and 160 nmol/kg. (Huynh A S, Chung W J, Cho H I, Moberg V E, Celis E, Morse D L, Vagner J. Novel Toll-like Receptor 2 Ligands for Targeted Pancreatic Cancer Imaging and Immunotherapy. J Med Chem. 2012; 55(22):9751-62) Fluorescence imaging was performed using the IVIS200 imaging system at various time points following intravenous administration of Dmt-Tic-IR800. For the bilateral flank subcutaneous xenograft model using endogenously expressing cells the optimal dose was 40 nmol/kg.
Fluorescence imaging of mice bearing H1299 (δOR−) cells in the left flank and DMS-53 (δOR+) cells in the right flank was performed using the Optix MX3 imaging system and a 40 nmol/kg dose of Dmt-Tic-IR800. […] FIG. 28 is a series of in vivo fluorescence images taken at different time points of mice bearing the xenograft tumors of lung cancer cell lines with positive endogenous expression (DMS-53) and non-expression (H1299). […] FIG. 30 is a series of graphs depicting the quantified values from in vivo imaging of the lung cancer xenograft tumors using the Optix MX-3 imaging instrument by ART. FIG. 31 is a series of representative images depicting the ex vivo fluorescence imaging of excised positive tumor, negative tumor, liver, lungs, kidneys and GI tract following intravenous administration of the Dmt-Tic-IR800 agent. […]
For dose determination assays on the Xenogen IVIS-200, images were analyzed using Living Image Software (v3.2). […]

[9] = tested on: DMS-53 luc+ (DOR+) orthotopic lung tumor; experiment: Orthotopic model of lung cancer, fluorescence molecular tomography; assay type: in vivo, mice; settings: 40 nmol/kg i.v.; 0 to 48 hours
Method: In the orthotopic model of lung cancer, the mice undergo a minor surgical procedure during which DMS-53 luc+ (DOR+) cells are injected directly in the left lung. The growth of the tumors is monitored using bioluminescence imaging (FIG. 33A). The PK of DORL-800 was studied in this model by injecting mice intravenously with DORL-800 (40 nmol/kg) and acquiring images at various time points from 0 to 48 hours using fluorescence molecular tomography (FIG. 33B). […] FIG. 34A depicts the structure of DORL-800. FIGS. 34B and C depict in vivo fluorescence imaging of endogenously expressing subcutaneous lung cancer xenograft tumors following administration of DORL-800. The presence of tumor was confirmed by computed tomography (CT) and histology. DORL-800 was studied for use in intraoperative guidance. FIG. 35 is an image of a SCID Hairless Outbred mouse (SHO) four weeks after DMS-53 luc+ (DOR+) cells were injected directly into the lung.

In the case of `CC1(C)C(/C=C/C2=C(Oc3ccc(S(=O)(=O)O)cc3)C(=C/C=C3/N(CCCCS(=O)(=O)O)c4ccc(S(=O)(=O)[O-])cc4C3(C)C)/CCC2)=[N+](CCCCCC(=O)O)c2ccc(S(=O)(=O)O)cc21` [Licor IR800CW], the toxicity [1] is listed as “non-toxic”.
For Dmt-Tic-Lys(Ac)-OH, the Ki [2] is listed as 0.047 nM.
For `CC[N+]1=C(C=CC=CC=C2N(CCCCCC(=O)NCCN3C(=O)CC(SCCC(=O)NCCCC[C@H](NC(=O)[C@@H]4Cc5ccccc5CN4C(=O)[C@@H](N)Cc4c(C)cc(O)cc4C)C(=O)O)C3=O)c3ccc(S(=O)(=O)O)cc3C2(C)C)C(C)(C)c2cc(S(=O)(=O)[O-])ccc21` (stereo partly drawn) [ligand 1, Dmt-Tic-Lys(Cy5)-OH], the Ki [3] was 3 nM, the Kb [4] was 0.037 nM and the “time of maximum probe uptake in the δOR+ tumor” value ([5]; 4.5 nmol/kg i.v., time course 0-168 h) was 3 h. For the same compound, the “time by which probe is cleared from δOR negative tumor” value [6] was ≤ 33 min and the blood-brain barrier passage [7] was “does not cross the blood-brain barrier”.
For `Cc1cc(O)cc(C)c1C[C@H](N)C(=O)N1Cc2ccccc2C[C@H]1C(=O)N[C@@H](CCCCNC(=O)CCSC1CC(=O)N(CCNC(=O)CCCCC[N+]2=C(/C=C/C3=C(Oc4ccc(S(=O)(=O)O)cc4)C(=C/C=C4/N(CCCCS(=O)(=O)O)c5ccc(S(=O)(=O)O)cc5C4(C)C)/CCC3)C(C)(C)c3cc(S(=O)(=O)[O-])ccc32)C1=O)C(=O)O` (stereo partly drawn) [Dmt-Tic-IR800], the Ki [3] was 1.43 ± 0.24 nM, the “fold enhancement of the positive tumor (HCT-116/δOR) relative to the negative tumor (HCT-116)” value ([5]; 10 nmol/kg i.v., 24 hours post-injection, Optix MX3, n=4) was ~7 fold and the “tumor selectivity in fluorescence image” value ([5]; 10 nmol/kg, 24 h post-administration) was “selective for the δOR+ tumor”. The “fold enhancement of the positive tumor (DMS-53) relative to the negative tumor (H1299)” value ([8]; 40 nmol/kg i.v., 24 hours post-injection, Optix MX3, n=4) was ~4 fold, the “tumor selectivity in fluorescence image” value [8] was “selective for the δOR+ tumor” and the “tumor selectivity in fluorescence image” value ([8]; listed as DORL-800) was “selective for the DOR+ tumor”. For the same compound, the “accumulation in orthotopic tumor” value [9] was “accumulated specifically in the tumor” and the blood-brain barrier passage [7] was “does not cross the blood-brain barrier”.
